Tested on: LN-308 targets
Assay: Polyclonal NK cell lytic activity, 51Cr release
Type: cell-based, human
Method: FIG. 3. Modulation of allogeneic anti-glioma immune responses by Compound No. 79 involves TGF-β antagonism. A. The lytic activity against LN-308 targets of PBL (squares) or purified T cells (triangles) preincubated with irradiated LN-308 cells in the absence (open symbols) or presence (filled symbols) of Compound No. 79 (1 μM) was determined in ^51Cr release assays. B-D. PBL were cultured in the absence (left) or presence (right) of irradiated LN-308 cells for 5 days. The cultures contained Compound No. 79 (1 μM) (filled bars) or not (open bars). Subsequently these effector cells were cocultured for 24 h with fresh non-irradiated LN-308 cells in the absence of Compound No. 79. The release of IFN-γ (B), TNF-α (C) or IL-10 (D) was assessed by Elispot assay. Data are expressed as cytokine-producing cells per 5×10^5 effector cells (n=3, *p<0.05, **p<0.01, t-test, effect of Compound No. 79). E, F. Polyclonal NK cell cultures were exposed to TGF-β1 (5 ng/ml) (E) or diluted (1:4) glioma cell SN (F), without or with Compound No. 79 (1 μM), for 48 h and subsequently used as effectors in ^51Cr release assays using LN-308 cells as targets. Compound No. 79 alone or TGF-β antibody alone had no effect on NK cell activity in these assays (data not shown).
Human PBMC were isolated from healthy donors by density gradient centrifugation (Biocoll, Biochrom KG). Monocytes were depleted by adhesion and differential centrifugation to obtain peripheral blood lymphocytes (PBL). To obtain purified T cells, the PBMC were depleted of B cells and monocytes using LymphoKwik T™ reagent (One Lambda Inc., Canoga Park, Calif.). […]
HLA-A2-mismatched PBL or T cells (107/25 cm2 flask) were cocultured with 106 irradiated (30 Gy) glioma cells for 5 days. […] The maximum 51Cr release was determined by addition of NP40 (1%). After 4 h the supernatants were transferred to a Luma-PlateTM-96 (Packard, Dreieich, Germany) and measured. The percentage of 51Cr release was calculated as follows: 100×([experimental release−spontaneous release]/[maximum release−spontaneous release]).

Fc1ccc(Cl)cc1-c1nc(Nc2ccncc2)c2nccnc2n1 [Compound No. 79]
TGF-β-mediated inhibition of NK cell lytic activity (TGF-β1 5 ng/ml, 1 μM, 48 h, FIG. 3E): relieved
inhibition of NK cell activity by LN-308 cell supernatants (supernatant diluted 1:4, 48 h, FIG. 3F): blocked
NK cell activity, agent alone (without TGF-β or supernatant, data not shown): no effect

— US20050245508A1, “Treatment of malignant gliomas with TGF-beta inhibitors” (SCIOS, Inc., priority 2003, published 2005)
